For test [1], the target named is human CB1 (Homo sapiens, UniProt P21554). Put plainly: Human CB1 cannabinoid receptor radioligand binding assay ([3H]-CP 55,940 displacement, HEK-293 membranes). From the text:
(§1) cDNA expression clones for human CB1 (hCB1, Genbank Accession No. AY225225) and human CB2 (hCB2, Genbank Accession No. AY242132) expressed in vector pcDNA3.1+ were purchased from UMR cDNA Resource Center, Rolla, Mo. (Clone ID CNR01L000 for hCB1; CNR0200000 for hCB2).
(§2) Stable, HEK-293-derived cell lines that recombinantly express hCB1 or hCB2 were established. In brief, the clone hCB1 (CNR1L) or hCB2 (CNR2) was transfected into human embryonic kidney cells (HEK-293) using Lipofectamine 2000 (Gibco, Cat#11668-019) according to the manufacturer's protocol. Transfected clones were isolated by single colony purification and clones were screened for receptor expression using a whole cell, 3H-CP 55,940 radioligand binding assay. HEK-293 stable cells were maintained in Dulbecco's modified Eagles medium (DMEM) containing 10% fetal bovine serum, 2 mM L-glutamine and 0.5 mg/mL G-418.
(§3) Membranes were isolated from transfected cells as follows. Monolayers of cultured cells were washed twice with phosphate-buffered saline (PBS). Cells were scraped into 20 mM HEPES, pH 7.4, 10 mM EDTA containing complete cocktail protease inhibitors (Roche, Catalog #11 697 498 001), and were homogenized by an electric-powered mechanical probe homogenizer (Omni GLH; probe G7-195S) for 40 seconds at 7000 rpm. Homogenates were centrifuged 10 minutes at 1000×g at 4° C. The supernatant was collected and was centrifuged for 1 hour at 40,000×g. The supernatant was then decanted and the resulting pellet was re-suspended in 20 mM HEPES, pH 7.4, 5 mM MgCl2, 1 mM EDTA, 10% sucrose with complete cocktail protease inhibitors. Protein concentration of membrane suspensions were measured by Bradford Protein Assay using bovine serum albumin as the standard (BioRad catalog #500-0006). Protein concentrations of membrane suspensions were adjusted with the final buffer in the range of 5 to 10 mg/mL and were stored at −80° C. until further use.
(§4) Radioligand binding assays were performed by incubating membranes (2-10 μg protein) prepared from HEK-293 cells expressing recombinant human cannabinoid receptors, CB1 or CB2, at room temperature with 0.5 nM cannabinoid receptor agonist, [3H]-CP 55,940 (Perkin Elmer, catalog #NET1051) in 0.2 mL of binding buffer (50 mM Tris-HCl, pH 7.5, 5 mM MgCl2, 2.5 mM EDTA) and 0.1% fatty acid free bovine serum albumin (Sigma Cat. #A0821) for 90 minutes. A rapid filtration technique using Millipore FB filter plates (Catalog #MADVNOB) and filtration apparatus (Millipore system Catalog MAVM0960R) with vacuum aspiration was used to harvest and rinse labeled membranes (8 times with 0.2 mL of chilled binding buffer). The radioactivity bound to the filters was counted with 0.05 mL of liquid scintillant (UltraGold MV, PerkinElmer catalog #6013159) in a scintillation counter (Perkin Elmer Microbeta instrument). Nonspecific binding was determined in the presence of unlabeled 1 μM CP 55,940 (Sigma Aldrich, catalog #C1112). Binding data were analyzed using GraphPad Prism (GraphPad Software, Inc. San Diego, Calif.).

For test [2], the target named is T1, human CB2 (Homo sapiens, UniProt P34972). The test can be described thus: Human CB2 cannabinoid receptor radioligand binding assay ([3H]-CP 55,940 displacement, HEK-293 membranes).
T1 sequence (P34972 whole entry): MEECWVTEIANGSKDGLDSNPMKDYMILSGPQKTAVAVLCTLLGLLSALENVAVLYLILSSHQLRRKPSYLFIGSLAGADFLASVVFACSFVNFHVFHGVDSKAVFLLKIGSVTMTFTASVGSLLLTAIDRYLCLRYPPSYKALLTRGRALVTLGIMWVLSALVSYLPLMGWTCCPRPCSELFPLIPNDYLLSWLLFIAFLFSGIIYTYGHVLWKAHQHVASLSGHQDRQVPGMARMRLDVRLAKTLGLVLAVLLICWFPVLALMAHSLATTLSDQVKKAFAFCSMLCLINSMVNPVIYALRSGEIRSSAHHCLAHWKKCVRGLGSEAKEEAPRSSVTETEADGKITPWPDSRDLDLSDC
Description: as §1, §2, §3, §4

Test [3] deals with T1, human CB2. Put plainly: 35S GTPγS binding functional assay, agonist mode, hCB2 HEK-293 membranes. The format is biochemical. Here is the method:
Functional assays which monitor G-protein coupled receptor or downstream cellular responses can be used to characterize potential CB1 receptor and/or CB2 receptor agonist or antagonist activities. Direct activation (or inhibition of activation) can be monitored using a GTPγS assay (membrane-based assay) or cAMP assay (whole cell-based assay).
^35S GTPγS binding assays were performed by incubating recombinant cell membranes prepared above (5 μg) in the presence of scintillation proximity assay beads (SPA beads, Catalog #RPNQ0252 GE Healthcare, Buckinghamshire, England) in GTPγS binding buffer [50 mM HEPES (pH 7.4), 100 mM NaCl, 5 mM MgCl2, 0.001% saponin (Sigma catalog #S4521)] supplemented with 20 uM GDP (Sigma catalog #G7127) in the presence or absence of test compound. The reaction was carried out in 96-well microplates with 0.1 nM [^35S]GTPγS (specific activity=1250 Ci/mmol; Perkin Elmer catalog #NEG030X250UC) in a final volume of 100 uL. After a 90 min room temperature incubation, the reaction was analyzed using a scintillation counter (Perkin Elmer Microbeta instrument). Binding data were analyzed using GraphPad Prism.
Background: Binding of GTPγS marks nucleotide exchange on a G protein.

Test [4] concerns mouse. The test can be described thus: Phenylbenzoquinone-induced (PBQ) writhing model. To be noted: dose 30 (unit not given), route IP, P < 0.001.
The mark [5] stands for this setting: read-out: hCB1 IC50 (CP displ, nM, HEK), CP 55,940 displacement, HEK-293 membranes.
The mark [6] stands for this setting: read-out: hCB2 IC50 (CP displ, nM, HEK), CP 55,940 displacement, HEK-293 membranes.
The mark [7] stands for this setting: GTPγS agonist mode, HEK-293 membranes, read-out: hCB2 EC50 (GTPyS ag, nM, HEK).
The mark [8] stands for this setting: CP 55,940 displacement, HEK-293 membranes, read-out: hCB1 IC50 (CP displ, nM, HEK).
[9] abbreviates: CP 55,940 displacement, HEK-293 membranes, read-out: hCB2 IC50 (CP displ, nM, HEK).
Where [10] appears, read: read-out: hCB2 EC50 (GTPyS ag, nM, HEK), GTPγS agonist mode, HEK-293 membranes.

Where two headings read alike, the source gives them in different places. Some results are limits rather than exact numbers.

human CB1, sequence (P21554 whole entry): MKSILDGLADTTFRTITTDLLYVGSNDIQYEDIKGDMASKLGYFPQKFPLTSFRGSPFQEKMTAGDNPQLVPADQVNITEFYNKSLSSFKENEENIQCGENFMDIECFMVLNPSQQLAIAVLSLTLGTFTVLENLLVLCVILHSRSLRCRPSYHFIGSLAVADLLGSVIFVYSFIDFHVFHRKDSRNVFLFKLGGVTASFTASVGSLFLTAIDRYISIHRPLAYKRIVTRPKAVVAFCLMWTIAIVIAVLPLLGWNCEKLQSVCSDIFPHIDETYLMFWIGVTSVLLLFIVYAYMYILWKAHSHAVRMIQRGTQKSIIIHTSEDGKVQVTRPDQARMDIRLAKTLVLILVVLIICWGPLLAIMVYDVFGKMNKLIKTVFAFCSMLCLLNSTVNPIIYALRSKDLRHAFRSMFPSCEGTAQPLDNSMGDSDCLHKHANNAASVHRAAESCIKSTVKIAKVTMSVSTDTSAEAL

Usually IC50 stands for the midpoint of a concentration-inhibition curve. What is called EC50 is the concentration that produces a half-maximal response. For `Cc1c(C(=O)c2cccc(Cl)c2Cl)c2ccsc2n1CCN1CCCCC1` [Compound I-17], the IC50 is 1000 to 10000 nM in test [1] (setting [5]) and less than 100 nM in test [2] (setting [6]). Besides, the EC50 in test [3] (setting [7]) was less than 100 nM.
With `CCCn1c(C)c(C(=O)c2cccc(Cl)c2Cl)c2ccsc21` [Compound I-2], the figures for the IC50 in test [1] (setting [5]) and in test [2] (setting [6]) were greater than 10000 nM and 100 to 1000 nM, respectively. Also, the EC50 in test [3] (setting [7]) was less than 100 nM.
On to `Cc1c(C(=O)c2cccnc2Cl)c2ccsc2n1CCN1CCOCC1` [Compound I-28], for which the figures for the IC50 in test [1] (setting [5]) and in test [2] (setting [6]) were greater than 10000 nM and 1000 to 10000 nM, respectively.
`Cc1c(C(=O)c2cccc(F)c2F)c2ccsc2n1CCN1CCOCC1` [Compound I-11]: the concentration for half-maximal inhibition (IC50) in test [1] (setting [5]) was greater than 10000 nM; in test [2] (setting [6]), 1000 to 10000 nM. Besides, the EC50 in test [3] (setting [7]) is 100 to 1000 nM.
As to `CCS(=O)(=O)n1c(C)c(C(=O)c2cccc(Cl)c2Cl)c2ccsc21` [Compound I-21], the figures for the IC50 in test [1] (setting [8]) and in test [2] (setting [9]) were greater than 10000 nM and 1000 to 10000 nM, respectively.
Turning to `Cc1c(C(=O)C2CCCCC2)c2ccsc2n1CCN1CCOCC1` [Compound I-24], the IC50 was in the range of 1000 to 10000 nM in test [1] (setting [5]) and 100 to 1000 nM in test [2] (setting [6]). The EC50 in test [3] (setting [7]) lay within 100 to 1000 nM.
With `Cc1c(C(=O)C2C(C)(C)C2(C)C)c2ccsc2n1CCN1CCOCC1` [Compound I-8], the IC50 in test [1] (setting [5]) was in the range of 1000 to 10000 nM; in test [2] (setting [6]) it was 100 to 1000 nM. Moreover, in test [3] (setting [7]), the EC50 was less than 100 nM.
The corresponding values for `Cc1c(C(=O)c2cccc(Cl)c2Cl)c2sccc2n1CCN1CCOCC1` [Compound I-5] are 1000 to 10000 nM, less than 100 nM and less than 100 nM.
Consider `CCn1c(C)c(C(=O)c2cccc(Cl)c2Cl)c2ccsc21` [Compound I-30], for which the IC50 in test [1] (setting [5]) was greater than 10000 nM; in test [2] (setting [6]), 1000 to 10000 nM. Besides, the EC50 in test [3] (setting [10]) lay within 100 to 1000 nM.
Regarding `Cc1c(C(=O)c2cccc(Cl)c2Cl)c2ccsc2n1CCC1CCN(C(=O)OC(C)(C)C)CC1` [Compound I-22], the IC50 in test [1] (setting [8]) and in test [2] (setting [9]) was greater than 10000 nM each time.
In the case of `CCCn1c(C)c(C(=O)c2ccccc2)c2ccsc21` [Compound I-7], the IC50 in test [1] (setting [8]) and in test [2] (setting [9]) was greater than 10000 nM in each case.
As for `Cc1c(C(=O)c2cccc(Cl)c2Cl)c2ccsc2n1CCC1CCN(C)CC1` [Compound I-25], the IC50 in test [1] (setting [5]) and in test [2] (setting [6]) was greater than 10000 nM throughout.
`CCCOc1ccccc1C(=O)c1c(C)n(CCN2CCOCC2)c2sccc12` [Compound I-27]: the IC50 is greater than 10000 nM in test [1] (setting [5]) and 1000 to 10000 nM in test [2] (setting [6]).
For `Cc1c(C(=O)c2cccc(Cl)c2Cl)c2cc(Cl)sc2n1CCN1CCOCC1` [Compound I-19], the IC50 in test [1] (setting [5]) was 1000 to 10000 nM; in test [2] (setting [6]), less than 100 nM. The EC50 in test [3] (setting [7]) is 100 to 1000 nM.
As to `Cc1c(C(=O)c2cccc(Cl)c2Cl)c2ccsc2n1CC(=O)N1CCOCC1` [Compound I-18], the IC50 in test [1] (setting [5]) is greater than 10000 nM; in test [2] (setting [6]), 100 to 1000 nM. For the same compound, the EC50 in test [3] (setting [10]) was 100 to 1000 nM.
For `Cc1c(C(=O)c2cccc(Cl)c2Cl)c2ccsc2n1CC1CCCCN1C` (centres unmarked) [Compound I-20], the IC50 in test [1] (setting [5]) and in test [2] (setting [6]) was less than 100 nM throughout. Further, the EC50 in test [3] (setting [7]) was less than 100 nM.
Take `Cc1c(C(=O)c2cccc(Cl)c2Cl)c2ccsc2n1CC1CCOCC1` [Compound I-23]: the IC50 was 1000 to 10000 nM in test [1] (setting [5]) and less than 100 nM in test [2] (setting [6]). Moreover, the EC50 in test [3] (setting [7]) is less than 100 nM.
Regarding `Cc1c(C(=O)c2ccccc2)c2ccsc2n1CCN1CCOCC1` [Compound I-31], the IC50 in test [1] (setting [5]) and in test [2] (setting [6]) was greater than 10000 nM each time.
For `Cc1c(C(=O)c2cccc(Cl)c2Cl)c2ccsc2n1CCN1CCOCC1` [Compound I-1, (2,3-dichlorophenyl)(5-methyl-6-(2-morpholinoethyl)-6H-thieno[2,3-b]pyrrol-4-yl)methanone], the IC50 in test [1] is 1000 to 10000 nM; in test [2] it was less than 100 nM. The same compound yielded an EC50 in test [3] of less than 100 nM. Besides, the “Number of Writhes” value in test [4] is listed as 1.5 ± 0.79.
For `COCCn1c(C)c(C(=O)c2cccc(Cl)c2Cl)c2ccsc21` [Compound I-10], the IC50 in test [1] (setting [5]) is greater than 10000 nM; in test [2] (setting [6]), 100 to 1000 nM. The concentration giving a half-maximal response (EC50) in test [3] (setting [7]) lay in the range of 100 to 1000 nM.
With `Cc1c(C(=O)c2cccc(Cl)c2)c2ccsc2n1CCN1CCOCC1` [Compound I-12], the IC50 in test [1] (setting [5]) and in test [2] (setting [6]) was 1000 to 10000 nM throughout.
Take `Cc1c(C(=O)c2cccc(Cl)c2Cl)c2scnc2n1CCN1CCOCC1` [Compound I-3]: the half-maximal inhibitory concentration (IC50) was 1000 to 10000 nM in test [1] (setting [5]) and less than 100 nM in test [2] (setting [6]). Also, the EC50 in test [3] (setting [7]) was less than 100 nM.
In the case of `Cc1c(C(=O)c2cccc(Cl)c2Cl)c2ccsc2n1CCC1CCOCC1` [Compound I-9], the IC50 in test [1] (setting [5]) is 100 to 1000 nM; in test [2] (setting [6]), less than 100 nM. Also, in test [3] (setting [7]), the EC50 is less than 100 nM.
Turning to `Cc1c(C(=O)c2cccc3c2OCC3)c2ccsc2n1CCN1CCOCC1` [Compound I-14], the IC50 in test [1] (setting [5]) lay within 1000 to 10000 nM; in test [2] (setting [6]) it was 100 to 1000 nM. Further, in test [3] (setting [7]), the EC50 was 100 to 1000 nM.
On to `Cc1c(C(=O)c2ccc(Cl)cc2Cl)c2ccsc2n1CCN1CCOCC1` [Compound I-15], for which the IC50 is greater than 10000 nM in test [1] (setting [5]) and 100 to 1000 nM in test [2] (setting [6]). In addition, the EC50 in test [3] (setting [7]) was 100 to 1000 nM.
`CCCn1c(C)c(C(=O)c2cccc(Cl)c2Cl)c2scnc21` [Compound I-4]: the IC50 in test [1] (setting [5]) is greater than 10000 nM; in test [2] (setting [6]), 100 to 1000 nM. Further, in test [3] (setting [7]), the EC50 was less than 100 nM.
